Source: patent US10392368B2, “Pyrazolo and triazolo bicyclic compounds as JAK kinase inhibitors” (THERAVANCE BIOPHARMA R&D IP, LLC, priority 2017, dated 2019)
Where two headings read alike, the source gives them in different places.

Columns and labels:
[1] = target: T1, JAK3 (Homo sapiens, UniProt P52333); assay: Biochemical JAK3 kinase assay (LanthaScreen); set-up: GST; purchased Life Technologies; settings: for Ki: read-out: JAK 3 (pKi) (converted)
T1 sequence (P52333 1-1124): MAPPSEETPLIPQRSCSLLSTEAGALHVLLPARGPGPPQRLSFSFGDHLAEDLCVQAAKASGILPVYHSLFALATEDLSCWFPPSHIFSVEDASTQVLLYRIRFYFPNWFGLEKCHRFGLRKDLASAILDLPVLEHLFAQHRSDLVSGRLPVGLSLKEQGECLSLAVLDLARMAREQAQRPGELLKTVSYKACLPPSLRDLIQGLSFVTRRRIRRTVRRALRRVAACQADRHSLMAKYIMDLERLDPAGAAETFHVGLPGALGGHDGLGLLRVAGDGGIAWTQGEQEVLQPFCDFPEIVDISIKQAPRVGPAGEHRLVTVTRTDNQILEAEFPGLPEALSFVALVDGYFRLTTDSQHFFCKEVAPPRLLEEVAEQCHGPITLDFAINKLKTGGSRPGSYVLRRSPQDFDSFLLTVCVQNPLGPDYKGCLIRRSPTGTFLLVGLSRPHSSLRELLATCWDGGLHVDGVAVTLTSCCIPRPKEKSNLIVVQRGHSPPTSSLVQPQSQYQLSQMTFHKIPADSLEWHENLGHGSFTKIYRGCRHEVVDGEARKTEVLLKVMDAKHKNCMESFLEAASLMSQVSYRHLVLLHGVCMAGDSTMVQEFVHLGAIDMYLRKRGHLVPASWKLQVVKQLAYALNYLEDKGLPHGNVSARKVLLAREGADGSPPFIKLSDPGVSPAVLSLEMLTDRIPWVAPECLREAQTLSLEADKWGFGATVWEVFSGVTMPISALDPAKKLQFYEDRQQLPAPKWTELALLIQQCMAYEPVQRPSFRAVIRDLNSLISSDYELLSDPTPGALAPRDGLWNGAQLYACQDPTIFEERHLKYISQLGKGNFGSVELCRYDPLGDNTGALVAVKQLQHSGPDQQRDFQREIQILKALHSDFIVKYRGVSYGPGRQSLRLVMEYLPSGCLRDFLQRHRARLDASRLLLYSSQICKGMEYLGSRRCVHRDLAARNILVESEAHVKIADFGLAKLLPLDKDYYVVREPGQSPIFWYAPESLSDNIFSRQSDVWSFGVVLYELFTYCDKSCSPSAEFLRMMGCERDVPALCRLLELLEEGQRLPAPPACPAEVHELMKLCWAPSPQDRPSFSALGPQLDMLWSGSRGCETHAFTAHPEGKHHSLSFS
How it was run: (§1)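 GST-tagged JAK enzyme and GFP-STAT1 peptide preincubated with compound 1 h, then ATP added; 1 h kinase reaction at ambient temperature, pH 7.5 HEPES/MgCl2 buffer, 1% DMSO. Tb-anti-pSTAT1 (pTyr701) TR-FRET, 520/495 nm ratio; IC50 from 4-parameter fit, converted to pKi via Cheng-Prusoff.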

[2] = system: IL-2 stimulated pSTAT5 in Tall-1 T cells; assay: Cellular JAK3 potency assay: inhibition of IL-2 stimulated pSTAT5 in Tall-1 T cells; type: cell-based, human; settings: for IC50: Homo sapiens, read-out: Tall-1 (pIC50) (converted)
How it was run: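 In human Tall-1 T cells, IL-2 (300 ng/ml final, 30 min) drives STAT5 phosphorylation after a 1 h compound pretreatment. Lysates are assayed for pSTAT5 by AlphaLisa, and IC50 derived from signal versus concentration is expressed as pIC50.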

[3] = target: T2, JAK1 (Homo sapiens, UniProt P23458); assay: Biochemical JAK1 kinase assay (LanthaScreen); settings: for Ki: read-out: JAK 1 (pKi) (converted)
T2 construct: GST; purchased Life Technologies
How it was run: as §1

[4] = selectivity: difference of pKi JAK3 and pKi JAK1
[5] = IL-2 stimulated pSTAT5 in Tall-1 T cells
[6] = TALL-1, IL-2 stimulated pSTAT5 in Tall-1 T cells
[7] = selectivity JAK3 over JAK1, difference of pKi
[8] = IL-2 stimulated pSTAT5, Tall-1 T cells
[9] = TALL-1, IL-2 stimulated pSTAT5, Tall-1 T cells

T2 sequence (P23458 whole entry): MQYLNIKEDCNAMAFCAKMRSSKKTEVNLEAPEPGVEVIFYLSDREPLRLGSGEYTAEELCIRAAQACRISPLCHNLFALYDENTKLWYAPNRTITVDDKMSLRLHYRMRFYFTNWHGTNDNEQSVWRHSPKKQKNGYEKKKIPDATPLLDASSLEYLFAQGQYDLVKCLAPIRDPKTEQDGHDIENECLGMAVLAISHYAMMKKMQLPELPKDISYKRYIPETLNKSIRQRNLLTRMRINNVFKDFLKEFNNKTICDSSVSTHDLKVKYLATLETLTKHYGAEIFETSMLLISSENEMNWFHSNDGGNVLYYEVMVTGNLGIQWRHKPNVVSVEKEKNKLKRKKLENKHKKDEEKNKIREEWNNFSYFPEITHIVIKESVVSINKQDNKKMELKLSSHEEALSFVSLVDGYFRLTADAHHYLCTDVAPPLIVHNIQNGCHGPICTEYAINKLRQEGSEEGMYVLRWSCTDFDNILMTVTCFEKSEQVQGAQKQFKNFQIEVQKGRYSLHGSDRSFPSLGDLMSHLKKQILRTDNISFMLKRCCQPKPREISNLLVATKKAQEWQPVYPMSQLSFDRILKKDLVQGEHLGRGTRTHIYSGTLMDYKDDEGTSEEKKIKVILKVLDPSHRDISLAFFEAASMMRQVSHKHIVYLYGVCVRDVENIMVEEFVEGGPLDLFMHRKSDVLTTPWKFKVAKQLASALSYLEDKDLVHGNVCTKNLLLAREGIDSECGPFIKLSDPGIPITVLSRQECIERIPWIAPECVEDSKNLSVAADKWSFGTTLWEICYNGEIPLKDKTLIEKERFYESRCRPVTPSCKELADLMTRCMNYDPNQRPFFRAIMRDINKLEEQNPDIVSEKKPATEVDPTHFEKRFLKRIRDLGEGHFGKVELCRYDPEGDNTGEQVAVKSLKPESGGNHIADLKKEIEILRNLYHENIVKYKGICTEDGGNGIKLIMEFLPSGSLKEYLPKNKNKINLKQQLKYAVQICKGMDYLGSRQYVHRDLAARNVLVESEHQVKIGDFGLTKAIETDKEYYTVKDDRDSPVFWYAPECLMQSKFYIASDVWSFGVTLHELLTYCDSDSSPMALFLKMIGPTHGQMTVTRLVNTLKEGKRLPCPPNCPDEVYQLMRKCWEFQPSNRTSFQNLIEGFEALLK

Row | Compound | JAK 3 (pKi) [1] | JAK3 (pKi)-JAK1 (pKi) [1, 4] | Tall-1 (pIC50) [2, 5] | JAK 1 (pKi) [3] | Ki [1] | IC50 [2, 6] | Ki [3] | JAK3 (pKi)-JAK1 (pKi) [1, 7] | Tall-1 (pIC50) [2, 8] | IC50 [2, 9]
1 | C=CC(=O)N1CC(C(C)(C)Oc2cc(-c3ccc(O)c(Cl)c3)cc3[nH]ncc23)C1 [Compound 3-26] | B (a pKi value between 9 and 10 (Ki between 1 nM and 0.1 nM)) | A (a value of 3 or above) | B (a pIC50 value between 6.7 (included) and 7.5 (IC50 between 200 nM and 32 nM)) | E (a pKi value of 7 or below (Ki of 100 nM or above)) |  |  |  |  |  | 
2 | CN(C)C/C=C/C(=O)N1CC[C@H](Oc2cc(-c3ccc(O)c(Cl)c3)cc3[nH]ncc23)C1 [Compound 1-3] |  | A (a value of 3 or above) |  |  | 0.1 to 1 nM | 31.6 to 200 nM | > 100 nM |  |  | 
3 | CN(C)CC=CC(=O)N1C2CCC1CC(Oc1cc(-c3ccc(O)c(Cl)c3)cc3[nH]ncc13)C2 (stereo not shown) [Compound 10-3] | B (a pKi value between 9 and 10 (Ki between 1 nM and 0.1 nM)) |  |  | D (a pKi value between 7 and 8 (Ki between 100 nM and 10 nM)) |  |  |  | B (a value of 2.3 to 3) | B (a pIC50 value between 6.7 (included) and 7.5 (IC50 between 200 nM and 32 nM)) | 
4 | CN(C)CC=CC(=O)N1C2CCC1CC(Oc1cc(-c3ccc(O)cc3)cc3[nH]ncc13)C2 (stereo not shown) [Compound 10-1] | A (a pKi value≥10 (Ki≤0.1 nM)) |  |  | D (a pKi value between 7 and 8 (Ki between 100 nM and 10 nM)) |  |  |  | B (a value of 2.3 to 3) | B (a pIC50 value between 6.7 (included) and 7.5 (IC50 between 200 nM and 32 nM)) | 
5 | C=CC(=O)N1CCC(S(=O)(=O)c2cc(-c3ccc(O)cc3)cc3[nH]ncc23)CC1 [Compound 12-8] |  |  |  |  | 0.1 to 1 nM |  | > 100 nM | A (a value of 3 or above) |  | 200 to 1000 nM
6 | C=CC(=O)N1CCO[C@@H](C(=O)Nc2cc(-c3ccc(O)c(F)c3)cc3[nH]ncc23)C1 [Compound 13-3] | A (a pKi value≥10 (Ki≤0.1 nM)) |  |  | E (a pKi value of 7 or below (Ki of 100 nM or above)) |  |  |  | A (a value of 3 or above) | A (a pIC50 value≥7.5 (IC50≤32 nM)) | 
7 | O=C(/C=C/CN1CCCC1)N1CC(COc2cc(-c3ccc(O)cc3)cc3[nH]ncc23)C1 [Compound 3-124] |  | A (a value of 3 or above) |  |  | 0.1 to 1 nM | 31.6 to 200 nM | > 100 nM |  |  | 
8 | CN(C)C/C=C/C(=O)N1CCC(COc2nc(-c3ccc(O)c(Cl)c3)cc3[nH]ncc23)CC1 [Compound 14-10] | B (a pKi value between 9 and 10 (Ki between 1 nM and 0.1 nM)) |  |  | D (a pKi value between 7 and 8 (Ki between 100 nM and 10 nM)) |  |  |  | C (a value of 1.8 to 2.3) | C (a pIC50 value between 6 and 6.7 (IC50 between 1 μM and 200 nM)) | 
9 | C=CC(=O)N1CC(C)(COc2cc(-c3ccc(O)c(Cl)c3)cc3[nH]ncc23)C1 [Compound 3-10] | B (a pKi value between 9 and 10 (Ki between 1 nM and 0.1 nM)) | A (a value of 3 or above) | A (a pIC50 value≥7.5 (IC50≤32 nM)) | E (a pKi value of 7 or below (Ki of 100 nM or above)) |  |  |  |  |  | 
10 | C=CC(=O)N1CCC(C)(Oc2cc(-c3ccc(O)c(F)c3)cc3[nH]ncc23)CC1 [Compound 6-7] |  |  |  |  | 0.1 to 1 nM |  | > 100 nM | A (a value of 3 or above) |  | < 31.6 nM
11 | C=CC(=O)N1CC[C@H](COc2cc(-c3ccc(O)cc3)nc3[nH]ncc23)C1 [Compound 2-6] | A (a pKi value≥10 (Ki≤0.1 nM)) | A (a value of 3 or above) | C (a pIC50 value between 6 and 6.7 (IC50 between 1 μM and 200 nM)) | E (a pKi value of 7 or below (Ki of 100 nM or above)) |  |  |  |  |  | 
12 | C=CC(=O)N1CC[C@H](Oc2nc(-c3ccc(O)c(Cl)c3)cc3[nH]nc(C)c23)C1 [Compound 1-35] |  | A (a value of 3 or above) |  |  | < 0.1 nM | < 31.6 nM | 10 to 100 nM |  |  | 
13 | C=CC(=O)N1CC(COc2cc(-c3ccc(O)cc3)cc3[nH]nc(Cl)c23)C1 [Compound 18-14] | B (a pKi value between 9 and 10 (Ki between 1 nM and 0.1 nM)) |  |  | E (a pKi value of 7 or below (Ki of 100 nM or above)) |  |  |  | A (a value of 3 or above) | B (a pIC50 value between 6.7 (included) and 7.5 (IC50 between 200 nM and 32 nM)) | 
14 | C=C(CN(C)C)C(=O)N1CC[C@H](Oc2cc(-c3ccc(O)cc3)cc3[nH]ncc23)C1 [Compound 16, (S)-2-((dimethylamino)methyl)-1-(3-((6-(4-hydroxyphenyl)-1H-indazol-4-yl)oxy)pyrrolidin-1-yl)prop-2-en-1-one] |  | A (a value of 3 or above) |  |  | 0.1 to 1 nM | 31.6 to 200 nM | > 100 nM |  |  | 
15 | C=CC(=O)N1CC(C)(COc2cc(-c3ccc(O)c(F)c3)cc3[nH]ncc23)C1 [Compound 3-12] |  | B (a value of 2.3 to 3) |  |  | 0.1 to 1 nM | 31.6 to 200 nM | > 100 nM |  |  | 
16 | CN(C)C/C=C/C(=O)N1CCO[C@H](C(=O)Nc2cc(-c3ccc(O)cc3)cc3[nH]ncc23)C1 [Compound 11-2] | B (a pKi value between 9 and 10 (Ki between 1 nM and 0.1 nM)) |  |  | E (a pKi value of 7 or below (Ki of 100 nM or above)) |  |  |  | A (a value of 3 or above) | C (a pIC50 value between 6 and 6.7 (IC50 between 1 μM and 200 nM)) | 
17 | CN(C)CC=CC(=O)N1C2CCC1CC(Oc1cc(-c3ccc(O)c(F)c3)cc3[nH]ncc13)C2 (stereo not shown) [Compound 9-5] | B (a pKi value between 9 and 10 (Ki between 1 nM and 0.1 nM)) |  |  | D (a pKi value between 7 and 8 (Ki between 100 nM and 10 nM)) |  |  |  | C (a value of 1.8 to 2.3) | C (a pIC50 value between 6 and 6.7 (IC50 between 1 μM and 200 nM)) | 
18 | CN(C)C/C=C/C(=O)N1CCC(Oc2cc(-c3ccc(O)cc3)cc3[nH]ncc23)CC1 [Compound 6-1] |  |  |  |  | < 0.1 nM |  | 10 to 100 nM | B (a value of 2.3 to 3) |  | 31.6 to 200 nM
19 | Cc1n[nH]c2cc(-c3ccc(O)cc3)cc(OCC3CN(C(=O)/C=C/CN(C)C)C3)c12 [Compound 18-4] |  |  |  |  | < 0.1 nM |  | 10 to 100 nM | B (a value of 2.3 to 3) |  | 31.6 to 200 nM
